For orientation: koff means a measure of how fast the partners let go of each other.

No end group written: not given here.

One sequence from patent US9359405B2, “Antagonists of the interleukin-1 receptor” (Phlogo ApS, priority 2011, dated 2016) can be followed below.

Assay [1] relates to IL1β-activated AMJ2-C8 macrophage cells. Kind of assay: TNFα secretion by IL1β-activated macrophages (L929/MTS bioassay). The assay is classed as cell-based. Particulars: IL1β 1.2 μM. Here is the method: The Ilantafin peptide or IL1Ra or IL1RI was added to cultures of macrophages (AMJ2-C8) seeded in 6-well multi-dishes (Nunc) (2.5×10^5 cells/well). After 24 h of incubation at 37° C., IL1β (1.2 μM) was added to the cultures to activate the macrophages. L929 cells were seeded in a 96-well plate at a density of 2×10^5 cells/mL. Both cell cultures were incubated for 24 h at 37° C. Conditioned medium from the macrophage cultures was collected and added to the fibroblast cultures together with 0.6 μg/well actinomycin. D (Sigma-Aldrich). Finally, after 24 h of incubation at 37° C., 20 μl of 3-(4,5-dimethylthiazol-2-yl)-5-(3-carboxymethoxyphenyl)-2-(4-sulfophenyl)-2H-tetrazolium (MTS) (Promega, Madison, Wis., USA) was added to each well and the plates were incubated protected from light, at 37° C., for ˜45 min and the optical density was measured at 490 nm in a Sunrise absorbance reader (Tecan, Männedorf, Switzerland). In order to calculate the amount of TNF-α in the conditioned medium, a standard curve was obtained by treating fibroblasts with different concentrations of TNF-α (R&D systems, Minneapolis, Minn., USA).

For assay [2], the system named is cerebellar granule neurons. Kind of assay: Survival assay, cerebellar granule neurons, low-potassium apoptosis. The assay is classed as cell-based, rat. Particulars: 5 mM KCl. How it is done:
Survival assay: Primary cultures of CGN were plated at a density of 100,000 cells/cm2 on poly-L-lysine coated 8-well permanox slides in Neurobasal-A medium (Gibco BRL) supplemented with 2% (v/v) B27, 0.5% (v/v) glutamax, 100 units/mL penicillin, 100 µg/mL streptomycin and KCl, making the final concentration of KCl in the medium 40 mM. 24 hours after plating, cytosine-b-D-arabinofuranoside (Ara-C; Sigma-Aldrich) was added to a final concentration of 10 μM to avoid proliferation of glial cells, after which the neurons were allowed to differentiate for a further 6 days at 37° C. Apoptotic cell death was induced by washing twice and changing the medium to Basal Medium Eagle (BME; Gibco BRL) supplemented with 1% (v/v) glutamine, 100 U/mL penicillin and 100 µg/mL streptomycin, 3.5 g D-glucose/L and 1% (v/v) sodium pyruvate (Gibco BRL) together with various concentrations of peptide. Thereby the concentration of potassium in the cultures was reduced to 5 mM KCl (Ditlevsen et al., 2003). Two days after induction of apoptosis, the cells were fixed with 4% (v/v) formaldehyde and stained with Hoechst 33258 as described for the survival assay employing hippocampal neurons.

Assay [3] concerns cerebellar granule neurons. Put plainly: Neurite outgrowth in primary cerebellar granule neurons. The note with it: 24 h, primary cerebellar neurons. The assay is classed as cell-based, rat. How it is done:
Cerebellar granular neurons (CGN) were prepared from 3 or 7 postnatal (P) day Wistar rats (Charles River, Sulzfeld, Germany or Taconic, Ejby, Denmark). Cerebella were cleared of meninges and blood vessels, roughly homogenized by chopping, and trypsinized with trypsin from Sigma-Aldrich (Brøndby, Denmark). The neurons were washed in the presence of DNAse 1 and soybean trypsin inhibitor (Sigma-Aldrich), and cellular debris was pelleted by centrifugation before plating. CGNs were plated at a density of 10,000 cells/well onto uncoated eight-well Lab-Tek chamber slides (NUNC, Slangerup, Denmark) in Neurobasal-A medium supplemented with 0.4% (w/v) BSA. Peptides or proteins at various concentrations were added to the medium immediately after plating, and cells were maintained at 37° C. and 5% CO2 for 24 h. Cultures then were fixed, blocked and incubated with polyclonal rabbit antibody against rat GAP-43 (Chemicon, Temecula, Calif., USA) followed by incubation with secondary Alexa Fluor488 goat anti-rabbit antibody (Molecular Probes, Eugene, Oreg., USA) as previously described (Neiiendam et al., 2004). The immunostained cultures were all recorded by computer-assisted fluorescence microscopy using a Nikon Diaphot inverted microscope (Nikon, Japan) equipped with a Nikon Plane 20× objective. Images were captured with a charge-coupled device video camera (Grundig Electronics, Nurnberg, Germany) using the software package Prima developed at the Protein Laboratory (University of Copenhagen, Copenhagen, Denmark). The length of neuronal processes per cell was estimated using the software package Process Length developed at the Protein Laboratory (Ronn et al. 2000). For estimation of neurite outgrowth, at least 200±20 cells were processed for each group in each individual experiment.

Assay [4] deals with NF-κB activated by IL1β (IL1RI signaling), HEK-Blue IL1β cells. Kind of assay: IL1RI signaling assay, HEK-Blue IL1β reporter cells (NF-κB/SEAP). The format is cell-based. Particulars: IL1β 1.2 μM. The text has this: IL1RI signaling assay: Commercially available Blue™ Cytokine Reporter Cell technology from InvivoGen (Denmark distributor: Sigma-Aldrich Denmark) was used. It is represented by an expanding family of engineered cell lines designed to provide a simple, rapid, and reliable method of monitoring the activation of signaling pathways induced by key cytokines. HEK-Blue™ IL1β cells are specifically engineered to selectively respond to IL1β, and they feature the secreted embryonic alkaline phosphatase (SEAP) reporter gene under the control of an NF-κB-inducible promoter. […] A target/receptor-specificity of the Ilantafin effect was verified employing HEK-Blue™ IL6 cells.

For a further assay, the target named is T1, IL1RI (Homo sapiens, UniProt P14778).
T1 construct: The recombinant protein comprising the whole extracellular part of IIL1RI was immobilised on the surface of a CM5 sensor chip
Put plainly: Kb (s^-1). The text has this: Table printed on a drawing sheet, Figure 3
Head of the field: Kb (s^-1)
First copying reader's note: Rate and affinity constants for binding to IL1RI; each cell holds the value with its ± error, and Ilantafin is a peptide while ILRa and IL1β are proteins.

In assay [5] the test system is collagen-induced arthritis (CIA). Put plainly: Collagen-induced arthritis in rats, treatment from day 15 (Example 7). The assay is classed as in vivo, rat. The note with it: 3.3 and 10 mg/kg s.c. daily from day 15. The text has this: Rheumatoid arthritis is a chronic, inflammatory, systemic autoimmune disease that affects about 1% of the general population in Western countries. Collagen-induced arthritis (CIA) in rats is a widely employed animal model for the screening of anti-inflammatory compounds. Collagen bovine, type II (CII, Cat.no.20021, Lot 090209, Chondrex, USA), Complete Freund's Adjuvant, containing 0.1% of Mycobacterium tuberculosis (CFA, Cat.no. F5581, Lot 049K8700, Sigma-Aldrich), Incomplete Freund's Adjuvant (IFA, Cat.no. F5506, Lot 058K8702, Sigma). PBS (Panum Institute, Copenhagen University). Isofluran (Baxter). Animals were immunized twice: on day 0 (CII+CFA) and on day 10 (CII+IFA, booster). On day 15 the mean clinical score reached a value of 5.0 and all animals were divided into 3 groups so that the severity of disease (mean clinical score) in all groups was almost equal. The peptide (two doses, 3.3 and 10 mg/kg) was administered subcutaneously daily starting at day 15. The clinical evaluation of the arthritis severity was assessed using the following grading system: O— no redness or swelling in foot and palm; 1—slight swelling or redness in metatarsophalangeal joint and ankle joint foot or palm; 2—progressed swelling/inflammation and redness from ankle to mid foot or in entire palm; 3—swelling/inflammation of entire foot except toes; 4—swelling and inflammation of entire foot including toes.

T1 sequence (P14778 18-336): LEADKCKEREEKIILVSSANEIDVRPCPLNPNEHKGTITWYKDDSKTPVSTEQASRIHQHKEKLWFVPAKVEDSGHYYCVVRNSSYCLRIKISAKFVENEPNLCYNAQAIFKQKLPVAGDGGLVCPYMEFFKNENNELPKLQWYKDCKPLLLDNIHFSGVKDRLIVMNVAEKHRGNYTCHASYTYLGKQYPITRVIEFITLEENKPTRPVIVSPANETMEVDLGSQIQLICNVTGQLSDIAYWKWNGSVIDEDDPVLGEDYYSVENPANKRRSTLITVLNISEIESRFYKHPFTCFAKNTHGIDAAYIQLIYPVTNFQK

Consider SGRKSSKMQA [Ilantafin], for which the “inhibition of TNFα secretion by IL1β-activated macrophages” value in assay [1] is “in a dose dependent manner inhibits the IL1β-induced activation of macrophages”. In assay [2], the “survival effect compared with IGF-1” value was “comparable with the effect of the neuronal survival factor IGF-1”. In assay [2] (2 days), the “neuronal survival / cell death (apoptosis) induced by lowering potassium” value is recorded as “reduces neuronal cell death (apoptosis)”. For the same sequence, the neurite outgrowth result in assay [3] is given as “induce neurite outgrowth in primary cerebellar neurons in a dose-dependent manner”. Besides, the “inhibition of NF-κB activation induced by IL1β” value in assay [4] is “inhibits activation of macrophages”. In addition, the koff at IL1RI stood at 0.000753 s⁻¹. For the same sequence, in assay [5], the “clinical manifestations (clinical score) of CIA” value was “abrogates an increase in clinical manifestations of CIA in rats”.
